Results from patent publication US20240092741A1, “COMPOSITION FOR PREVENTION OR TREATMENT OF NEUROFIBROMATOSIS TYPE 2 SYNDROME” (PRG S&TECH INC., priority 2021, published 2024).
“Also recorded” adds a separate entry of the source.

Key:
[1] = tested on: HEI-193 cells; assay: FACS analysis and IF staining of schwann cell markers in HEI-193 cells; assay type: cell-based, human; conditions: 7 days, compared with TEW7197 (FIG. 12F)
Description: Cells were seeded on cover glass, washed with PBS, fixed with 4% paraformaldehyde (PFA) for 30 minutes at room temperature, and then permeabilized with 0.2% Triton X-100 at room temperature for 5 minutes. After treatment with blocking buffer [3% goat serum diluted in PBS] for 1 hour, cells were reacted with the specified antibody in the blocking buffer overnight at 4° C. Finally, the cells were reacted with secondary antibodies conjugated with FITC or rhodamine at 4° C. for 7 hours. The nuclei were stained with DAPI at room temperature for 10 minutes. After the cells were washed 3 times with PBS, the cover glass was mounted with a mounting solution (H-5501, Vector Laboratories, Cambridgeshire, UK) and immunofluorescence signals were detected using a fluorescence microscopy (Zeiss, Jena, Germany). In addition, for flow cytometry, cells were seeded in a 6-well plate and reacted with DMSO (control group), PRG-N-01 (5 μM), or TEW7197 (5 μM), respectively. After 4 days, the cells were fixed with 70% ethanol and labeled with propidium iodine. These samples were analyzed by FACS for cell-cycle analysis. […] A minimum of 10,000 cells were analyzed using an Attune NxT Flow cytometer (Thermo Fisher Scientific, Inc., Rockford, IL, USA).

[2] = tested on: RKIP; assay: RKIP expression by Western blotting in HEI-193 cells; assay type: cell-based, human; conditions: compounds 10 μM, 24 h (FIG. 1A) or 72 h (FIG. 2), Western blot
Description: Cells were harvested and lysed using RIPA buffer [50 mM Tris-Cl, pH 7.5, 150 mM NaCl, 1% NP-40, 0.1% SDS, and 10% sodium deoxycholate] to examine cellular signaling. Protein concentrations in samples were measured using Bio-Rad (Hercules, CA, USA) protein assay kits and BSA standards. The samples (20 μg protein per lane) were separated by sodium dodecyl sulfate-polyacrylamide gel electrophoresis (SDS-PAGE), transferred to Immobilon-P^SQ transfer membranes (Millipore Corp., MA, USA), which were then cultured with 3% skim milk-containing TBS-T buffer (Tris-HCl-based buffer containing 20 mM Tris pH 7.6, 150 mM NaCl, and 0.05% Tween 20) for 1 hour at room temperature and then reacted with primary antibody in TBS-T overnight at 4° C. The membranes were then washed and reacted with secondary horseradish peroxidase (HRP)-conjugated antibodies [goat anti-mouse, goat anti-rabbit, and mouse anti-goat antibodies (Pierce, Thermo Fisher Scientific, Inc., Rockford, IL, USA)] in TBS-T at room temperature for 2 hours. The blots were detected using an HRP-conjugated secondary antibody using ECL kit (Intron, Seoul, Korea).
Because RKIP degradation in NF2 cells is clearly known (Mol Cancer Ther 17, 2271-2284, 2018), after first treating 260 novel synthetic compounds, RKIP expression was measured in HEI-193, a human NF2 cell line.

[3] = tested on: NF2-transfected mouse schwannoma cells; assay: MTT and immunoblotting in NF2-transfected mouse schwannoma cells; assay type: cell-based; conditions: NF2-transfected mouse schwannoma cells (FIGS. 9C, 9D)
Description: (§1) In other words, cells were seeded at a density of 2×10^5 cells/well in 12-well plates and cultured overnight before transfection. The vector (1.5 μg) was mixed with 1.5 μl of Jetpei reagent dissolved in 150 mM NaCl solution. The mixture was reacted at room temperature for 15 minutes, and then added to the cells. After 3 hours, the serum-free medium 15 was replaced with medium supplemented with 10% FBS. Cells were harvested and lysed using RIPA buffer [50 mM Tris-Cl, pH 7.5, 150 mM NaCl, 1% NP-40, 0.1% SDS, and 10% sodium deoxycholate] to examine cellular signaling. Protein concentrations in samples were measured using Bio-Rad (Hercules, CA, USA) protein assay kits and BSA standards. […] The blots were detected using an HRP-conjugated secondary antibody using ECL kit (Intron, Seoul, Korea). […] Plates were then cultured at 37° C. for 4 hours, the MTT solution was removed, the precipitated substances were dissolved using a solution (DMSO:ethanol=1:1), and an amount of formazan dye produced was quantified by measuring the absorbance at 560 nm using an ELISA microplate reader (Thermo Fisher Scientific, MA, USA).

[4] = tested on: HEI-193 cells; assay: Cell-cycle analysis by FACS in HEI-193 cells; assay type: cell-based, human; conditions: 10 μM, 4 days (FIGS. 12A, 13A)
Description: […] After 4 days, the cells were fixed with 70% ethanol and labeled with propidium iodine. These samples were analyzed by FACS for cell-cycle analysis. After 7 days of treatment with DMSO (control group), PRG-N-01, or TEW7197 at the indicated concentration, the cells were fixed with 4% paraformaldehyde and then stained with indicated antibody. A minimum of 10,000 cells were analyzed using an Attune NxT Flow cytometer (Thermo Fisher Scientific, Inc., Rockford, IL, USA).

[5] = tested on: HEI-193 cells; assay: MTT cell viability assay in HEI-193 cells; assay type: cell-based, human; conditions: indicated concentrations, 7 days (FIG. 5A)
Description: To measure cell viability, MTT (3-(4,5-dimethylthiazol-2-yl)-2,5-diphenyltetrazolium bromide) assay was used. In other words, the cells were seeded in 96-well plates and treated with the indicated chemicals for a predetermined time. After removing the medium, 200 μl of MTT solution (0.5 mg/ml) dissolved in PBS was added to each well. Plates were then cultured at 37° C. for 4 hours, the MTT solution was removed, the precipitated substances were dissolved using a solution (DMSO:ethanol=1:1), and an amount of formazan dye produced was quantified by measuring the absorbance at 560 nm using an ELISA microplate reader (Thermo Fisher Scientific, MA, USA).

[6] = tested on: NF2-transfected HEI-193 cells; assay: MTT and immunoblotting in NF2-transfected HEI-193 cells; assay type: cell-based, human; conditions: NF2-transfected HEI-193 cells (FIGS. 8B, 8C)
Description: as §1

In the case of `CCN(CC)CCOc1ccc(-c2nnn(Cc3ccc(OC)cc3)c2N)cc1` [PRG-N-01, 4-(4-(2-(diethylamino)ethoxy)phenyl)-1-(4-methoxybenzyl)-1H-1,2,3-triazol-5-amino], the “schwann cell markers (FACS analysis)” value [1] is reported as “clearly increased schwann cell markers compared to TEW7197”, the RKIP expression [2] is reported as “induced RKIP expression; also recorded: increased RKIP expression” and the “chemical effect (antiproliferating effect, RKIP induction, p-Erk suppression)” value [3] is reported as “no chemical effect”. For the same compound, the cell cycle [4] was “cell cycle arrest was induced at the G1 phase”, the “antiproliferative effect in NF2 cells (MTT)” value [5] was “obvious antiproliferative effect” and the “chemical effect (antiproliferating effect, RKIP induction, p-Erk suppression)” value [6] was “no chemical effect”.
